Measured values reported in PubChem BioAssay AID2060910 (Molecular Pharmacology Branch, DTP, NCI, 2025).
Values belong to the compound of their own block, whether it stands above or below them.

Test system: 242566-281-R-J2-PDC complex spheroid viability
Assay: Anticancer human tumor 242566-281-R-J2-PDC patient-derived pancreatic carcinoma cell line growth inhibition [RAS]
Conditions: for viability, T/C: stronger effect = lower value
Procedure, shortened: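 Multi-cell-type spheroids: tumor cells plus HUVEC endothelial cells and mesenchymal stem cells. RAS-pathway inhibitors were combined with targeted agents, each dosed in half-log steps down from clinical Cmax, or from 10 microM when Cmax was unknown.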

[1] = curve of first compound, second compound 0.000949 µM
[2] = curve of first compound, second compound 0.003 µM
[3] = curve of first compound, second compound 0.00949 µM
[4] = curve of first compound, second compound 0.03 µM
[5] = curve of first compound, second compound 0.0949 µM
[6] = curve of first compound, second compound 0.3 µM
[7] = second compound 0.000949 µM, first compound 0.00316 µM
[8] = second compound 0.000949 µM, first compound 0.01 µM
[9] = second compound 0.000949 µM, first compound 0.0316 µM
[10] = second compound 0.000949 µM, first compound 0.1 µM
[11] = second compound 0.000949 µM, first compound 0.316 µM
[12] = second compound 0.000949 µM, first compound 1 µM
[13] = second compound 0.003 µM, first compound 0.00316 µM
[14] = second compound 0.003 µM, first compound 0.01 µM
[15] = second compound 0.003 µM, first compound 0.0316 µM
[16] = second compound 0.003 µM, first compound 0.1 µM
[17] = second compound 0.003 µM, first compound 0.316 µM
[18] = second compound 0.003 µM, first compound 1 µM
[19] = second compound 0.00949 µM, first compound 0.00316 µM
[20] = second compound 0.00949 µM, first compound 0.01 µM
[21] = second compound 0.00949 µM, first compound 0.0316 µM
[22] = second compound 0.00949 µM, first compound 0.1 µM
[23] = second compound 0.00949 µM, first compound 0.316 µM
[24] = second compound 0.00949 µM, first compound 1 µM
[25] = second compound 0.03 µM, first compound 0.00316 µM
[26] = second compound 0.03 µM, first compound 0.01 µM
[27] = second compound 0.03 µM, first compound 0.0316 µM
[28] = second compound 0.03 µM, first compound 0.1 µM
[29] = second compound 0.03 µM, first compound 0.316 µM
[30] = second compound 0.03 µM, first compound 1 µM
[31] = second compound 0.0949 µM, first compound 0.00316 µM
[32] = second compound 0.0949 µM, first compound 0.01 µM
[33] = second compound 0.0949 µM, first compound 0.0316 µM
[34] = second compound 0.0949 µM, first compound 0.1 µM
[35] = second compound 0.0949 µM, first compound 0.316 µM
[36] = second compound 0.0949 µM, first compound 1 µM
[37] = second compound 0.3 µM, first compound 0.00316 µM
[38] = second compound 0.3 µM, first compound 0.01 µM
[39] = second compound 0.3 µM, first compound 0.0316 µM
[40] = second compound 0.3 µM, first compound 0.1 µM
[41] = second compound 0.3 µM, first compound 0.316 µM
[42] = second compound 0.3 µM, first compound 1 µM
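Further: spheroids exposed to compound for 7 days before readout.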
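Wherever viability, T/C is given: 100% = DMSO vehicle control wells.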

SMILES: CCn1c(-c2cccnc2C(C)OC)c2c3cc(ccc31)N1CCOC(CC(NC(=O)C(C(C)C)N(C)C(=O)C3(F)CCN(C(=O)C#CC(C)(C)N(C)C)CC3)C(=O)N3CCCC(N3)C(=O)OCC(C)(C)C2)C1 (stereo unspecified)
viability, T/C (compound 0.000949 µM): 93.4% [middle of 8 runs]
viability, T/C (compound 0.003 µM): 108% [middle of 8 runs]
viability, T/C (compound 0.00949 µM): 104% [middle of 8 runs]
viability, T/C (compound 0.03 µM): 109% [middle of 8 runs]
viability, T/C (compound 0.0949 µM): 98.3% [middle of 8 runs]
viability, T/C (compound 0.3 µM): 87.6% [middle of 8 runs]
IC50 (compound alone, run of 07/09/2024): > 300 nM

SMILES: C=CC(=O)Nc1cc(Nc2nccc(-c3cn(C)c4ccccc34)n2)c(OC)cc1N(C)CCN(C)C + CCn1c(-c2cccnc2C(C)OC)c2c3cc(ccc31)N1CCOC(CC(NC(=O)C(C(C)C)N(C)C(=O)C3(F)CCN(C(=O)C#CC(C)(C)N(C)C)CC3)C(=O)N3CCCC(N3)C(=O)OCC(C)(C)C2)C1
IC50 [1]: > 1000 nM
IC50 [2]: > 1000 nM
IC50 [3]: > 1000 nM
IC50 [4]: > 1000 nM
IC50 [5]: 983 nM
IC50 [6]: 754 nM
viability, T/C [7]: 87.8%
viability, T/C [8]: 107%
viability, T/C [9]: 82.5%
viability, T/C [10]: 91%
viability, T/C [11]: 86.7%
viability, T/C [12]: 50.3%
viability, T/C [13]: 131%
viability, T/C [14]: 95%
viability, T/C [15]: 92.2%
viability, T/C [16]: 84.3%
viability, T/C [17]: 89.8%
viability, T/C [18]: 47.2%
viability, T/C [19]: 119%
viability, T/C [20]: 95.8%
viability, T/C [21]: 82.8%
viability, T/C [22]: 102%
viability, T/C [23]: 77.4%
viability, T/C [24]: 51.1%
viability, T/C [25]: 97.6%
viability, T/C [26]: 95.3%
viability, T/C [27]: 99.1%
viability, T/C [28]: 93.6%
viability, T/C [29]: 66%
viability, T/C [30]: 52.2%
viability, T/C [31]: 98.5%
viability, T/C [32]: 98.7%
viability, T/C [33]: 99.2%
viability, T/C [34]: 83.5%
viability, T/C [35]: 61.3%
viability, T/C [36]: 49.5%
viability, T/C [37]: 94.9%
viability, T/C [38]: 86.9%
viability, T/C [39]: 78%
viability, T/C [40]: 70.4%
viability, T/C [41]: 56.5%
viability, T/C [42]: 47.8%

SMILES: O=C(c1ccc(F)c(F)c1Nc1ccc(I)cc1F)N1CC(O)([C@@H]2CCCCN2)C1
viability, T/C (compound 0.1 µM): 64.1% [middle of 4 runs]
viability, T/C (compound 0.316 µM): 41.3% [middle of 4 runs]

SMILES: CCN1CCN(Cc2ccc(Nc3ncc(F)c(-c4cc(F)c5nc(C)n(C(C)C)c5c4)n3)nc2)CC1 + CCn1c(-c2cccnc2C(C)OC)c2c3cc(ccc31)N1CCOC(CC(NC(=O)C(C(C)C)N(C)C(=O)C3(F)CCN(C(=O)C#CC(C)(C)N(C)C)CC3)C(=O)N3CCCC(N3)C(=O)OCC(C)(C)C2)C1
IC50 [1]: > 1000 nM
IC50 [2]: > 1000 nM
IC50 [3]: > 1000 nM
IC50 [4]: > 1000 nM
IC50 [5]: > 1000 nM
IC50 [6]: > 1000 nM
viability, T/C [7]: 102%
viability, T/C [8]: 92.2%
viability, T/C [9]: 78.6%
viability, T/C [10]: 88.5%
viability, T/C [11]: 102%
viability, T/C [12]: 99.6%
viability, T/C [13]: 109%
viability, T/C [14]: 93.5%
viability, T/C [15]: 81.5%
viability, T/C [16]: 88.2%
viability, T/C [17]: 103%
viability, T/C [18]: 94.7%
viability, T/C [19]: 102%
viability, T/C [20]: 99.4%
viability, T/C [21]: 93.1%
viability, T/C [22]: 86.5%
viability, T/C [23]: 98.4%
viability, T/C [24]: 109%
viability, T/C [25]: 97.5%
viability, T/C [26]: 94.7%
viability, T/C [27]: 85.8%
viability, T/C [28]: 97.2%
viability, T/C [29]: 88.2%
viability, T/C [30]: 117%
viability, T/C [31]: 83.8%
viability, T/C [32]: 92.8%
viability, T/C [33]: 93.4%
viability, T/C [34]: 93.1%
viability, T/C [35]: 83.8%
viability, T/C [36]: 107%
viability, T/C [37]: 83.5%
viability, T/C [38]: 79.2%
viability, T/C [39]: 79.5%
viability, T/C [40]: 77.7%
viability, T/C [41]: 93%
viability, T/C [42]: 116%

SMILES: C#Cc1c(F)ccc2cc(O)cc(-c3ncc4c(N5CC6CCC(C5)N6)nc(OCC56CCCN5CC(F)C6)nc4c3F)c12 (stereo unspecified)
viability, T/C (compound 0.0316 µM): 84.1% [middle of 8 runs]
viability, T/C (compound 0.1 µM): 80.2% [middle of 8 runs]
viability, T/C (compound 0.316 µM): 71.4% [middle of 8 runs]
viability, T/C (compound 3.16 µM): 53.9% [middle of 8 runs]
viability, T/C (compound 10 µM): 49.6% [middle of 8 runs]

More lines, main results first:

IC50 (curve of first compound, second compound 0.0316 µM): 2610 nM
IC50 (curve of first compound, second compound 0.1 µM): 1890 nM
IC50 (curve of first compound, second compound 0.316 µM): 1450 nM
IC50 (curve of first compound, second compound 1 µM): 893 nM
IC50 (curve of first compound, second compound 3.16 µM): 1220 nM
IC50 (curve of first compound, second compound 10 µM): 1170 nM
SMILES: CCC(CC)c1cc(NC2CCC(N)C2)n2nccc2n1 (stereo unspecified) + C#Cc1c(F)ccc2cc(O)cc(-c3ncc4c(N5CC6CCC(C5)N6)nc(OCC56CCCN5CC(F)C6)nc4c3F)c12
viability, T/C (second compound 0.0316 µM, first compound 0.0316 µM): 85.9%
viability, T/C (second compound 0.0316 µM, first compound 0.1 µM): 109%
viability, T/C (second compound 0.0316 µM, first compound 0.316 µM): 107%
viability, T/C (second compound 0.0316 µM, first compound 1 µM): 88.9%
viability, T/C (second compound 0.0316 µM, first compound 3.16 µM): 42.2%
viability, T/C (second compound 0.0316 µM, first compound 10 µM): 1.05%
viability, T/C (second compound 0.1 µM, first compound 0.0316 µM): 79.1%
viability, T/C (second compound 0.1 µM, first compound 0.1 µM): 92.1%
viability, T/C (second compound 0.1 µM, first compound 0.316 µM): 84.7%
viability, T/C (second compound 0.1 µM, first compound 1 µM): 69.3%
viability, T/C (second compound 0.1 µM, first compound 3.16 µM): 33.9%
viability, T/C (second compound 0.1 µM, first compound 10 µM): 0.89%
viability, T/C (second compound 0.316 µM, first compound 0.0316 µM): 83.6%
viability, T/C (second compound 0.316 µM, first compound 0.1 µM): 85.5%
viability, T/C (second compound 0.316 µM, first compound 0.316 µM): 73.3%
viability, T/C (second compound 0.316 µM, first compound 1 µM): 63.4%
viability, T/C (second compound 0.316 µM, first compound 3.16 µM): 26.3%
viability, T/C (second compound 0.316 µM, first compound 10 µM): 0.98%
viability, T/C (second compound 1 µM, first compound 0.0316 µM): 68.2%
viability, T/C (second compound 1 µM, first compound 0.1 µM): 67.6%
viability, T/C (second compound 1 µM, first compound 0.316 µM): 58.5%
viability, T/C (second compound 1 µM, first compound 1 µM): 50.6%
viability, T/C (second compound 1 µM, first compound 3.16 µM): 14.8%
viability, T/C (second compound 1 µM, first compound 10 µM): 0.85%
viability, T/C (second compound 3.16 µM, first compound 0.0316 µM): 58%
viability, T/C (second compound 3.16 µM, first compound 0.1 µM): 60.2%
viability, T/C (second compound 3.16 µM, first compound 0.316 µM): 56.1%
viability, T/C (second compound 3.16 µM, first compound 1 µM): 58.6%
viability, T/C (second compound 3.16 µM, first compound 3.16 µM): 11.1%
viability, T/C (second compound 3.16 µM, first compound 10 µM): 0.86%
viability, T/C (second compound 10 µM, first compound 0.0316 µM): 59.8%
viability, T/C (second compound 10 µM, first compound 0.1 µM): 54.8%
viability, T/C (second compound 10 µM, first compound 0.316 µM): 52.3%
viability, T/C (second compound 10 µM, first compound 1 µM): 58.1%
viability, T/C (second compound 10 µM, first compound 3.16 µM): 11.5%
viability, T/C (second compound 10 µM, first compound 10 µM): 0.55%

IC50 (curve of compound): 30.9 nM [middle of 4 runs]
SMILES: CCc1c2c(nc3ccc(O)cc13)-c1cc3c(c(=O)n1C2)COC(=O)[C@]3(O)CC
viability, T/C (compound 0.003 µM): 97% [middle of 4 runs]
viability, T/C (compound 0.00949 µM): 76% [middle of 4 runs]
viability, T/C (compound 0.03 µM): 49% [middle of 4 runs]
viability, T/C (compound 0.0949 µM): 24.7% [middle of 4 runs]
viability, T/C (compound 0.3 µM): 12.9% [middle of 4 runs]
